According to the supplement of paper PMC4977894:
Structures can show the parent of a compound that is named as a salt. ± gives the standard deviation of the averaged measurements.

Experiments:
[1] = tested on: Homo sapiens (human subject panel, olfactory perception); assay: perceived odor pleasantness rating (rating 0-100); higher = more pleasant
Procedure, shortened: (§1)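 Values for familiarity, intensity and pleasantness are averaged over subjects. The panel of 55 healthy people aged 18–50 excluded the six lowest performers and rated each paraffin-oil dilution of a molecule at high and low concentrations. Ratings were made only for stimuli the subject reported smelling, on a slider converted to a 0–100 scale.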

[2] = tested on: Homo sapiens (human subject panel, olfactory perception); assay: perceived odor familiarity rating (rating 0-100); higher = more familiar
Procedure, shortened: as §1

[3] = tested on: Homo sapiens (human subject panel, olfactory perception); assay: perceived odor intensity rating (rating 0-100); higher = stronger perceived smell
Procedure, shortened: as §1

[4] = odor dilution in paraffin oil: 1/100,000
[5] = odor dilution in paraffin oil: 1/10,000,000
[6] = odor dilution in paraffin oil: 1/1,000
[7] = odor dilution in paraffin oil: 1/10

Compound | perceived odor pleasantness rating [1, 4] | perceived odor pleasantness rating [1, 5] | perceived odor familiarity rating [2, 4] | perceived odor familiarity rating [2, 5] | perceived odor intensity rating [3, 4] | perceived odor intensity rating [3, 5] | perceived odor pleasantness rating [1, 6] | perceived odor familiarity rating [2, 6] | perceived odor intensity rating [3, 6] | perceived odor pleasantness rating [1, 7] | perceived odor familiarity rating [2, 7] | perceived odor intensity rating [3, 7]
CCCCCC=O [Hexanal] | 20.4 ± 20 | 47.2 ± 18 | 41.5 ± 33 | 29 ± 26 | 78.2 ± 21 | 15 ± 16 |  |  |  |  |  | 
CCCCCCOC=O [Hexyl Formate] | 42.2 ± 23 |  | 35.5 ± 28 |  | 33.9 ± 30 |  | 49 ± 28 | 42.8 ± 32 | 60.7 ± 29 |  |  | 
CCCCCCOC(=O)c1ccccc1 [Hexyl benzoate (replicate)] |  |  |  |  |  |  | 40.3 ± 23 | 36.7 ± 29 | 35.9 ± 32 | 31.9 ± 24 | 38.4 ± 28 | 71.5 ± 26
CCCCCCOC(=O)c1ccccc1 [Hexyl benzoate] |  |  |  |  |  |  | 37.4 ± 27 | 37.8 ± 28 | 40.7 ± 33 | 34.7 ± 25 | 47.5 ± 28 | 69.5 ± 25
CCCCCCOC(=O)CCCCC [Hexyl hexanoate] |  |  |  |  |  |  | 48.2 ± 23 | 38 ± 29 | 34.4 ± 26 | 43.8 ± 25 | 39 ± 26 | 67.7 ± 26
CCCCCCCC(=O)OCCCCCC [Hexyl octanoate] | 46.4 ± 22 |  | 28 ± 23 |  | 16.5 ± 24 |  | 52.4 ± 18 | 42.9 ± 32 | 23 ± 19 |  |  | 
CCCCCCOC(=O)CC [Hexyl propionate] | 38.5 ± 22 |  | 40.8 ± 33 |  | 27.6 ± 32 |  | 52.1 ± 24 | 43.1 ± 28 | 59 ± 32 |  |  | 
II [Iodine] |  |  |  |  |  |  | 51.6 ± 30 | 41 ± 37 | 32.4 ± 30 | 13.7 ± 22 | 48.4 ± 33 | 77.7 ± 29
IC(I)I [Iodoform] |  |  |  |  |  |  | 36.4 ± 22 | 51.2 ± 29 | 68.4 ± 23 | 30.7 ± 26 | 52.6 ± 33 | 84.4 ± 16
CCCC(=O)OCCC(C)C [Isoamyl butyrate] | 45.5 ± 23 |  | 36.4 ± 32 |  | 20.4 ± 28 |  | 52.8 ± 28 | 51.4 ± 31 | 63.4 ± 26 |  |  | 
CC(C)CCOC(=O)/C=C/c1ccccc1 [Isoamyl cinnamate] | 56.7 ± 24 |  | 40.7 ± 32 |  | 22.5 ± 26 |  | 38.8 ± 23 | 25.2 ± 25 | 18.9 ± 23 |  |  | 
CCCCCCCCCCCC(=O)OCCC(C)C [Isoamyl laurate] |  |  |  |  |  |  | 47.7 ± 22 | 31.8 ± 22 | 20.3 ± 22 | 33.7 ± 25 | 41.5 ± 29 | 59.9 ± 29
CCCCCCCC(=O)OCCC(C)C [Isoamyl octanoate] |  |  |  |  |  |  | 57.6 ± 22 | 45.4 ± 32 | 24.3 ± 28 | 50 ± 25 | 45.2 ± 30 | 62.8 ± 29
CC(C)CCN [Isoamylamine] | 40.2 ± 25 | 46.1 ± 22 | 37.5 ± 29 | 32.1 ± 27 | 37.5 ± 30 | 15.1 ± 27 |  |  |  |  |  | 
CC(C)COC(=O)c1ccccc1 [Isobutyl benzoate] |  |  |  |  |  |  | 49 ± 26 | 41.1 ± 29 | 36.7 ± 31 | 47.6 ± 29 | 53.3 ± 30 | 78.7 ± 20
CC(C)COC(=O)/C=C/c1ccccc1 [Isobutyl cinnamate] |  |  |  |  |  |  | 54 ± 27 | 38.6 ± 30 | 49.3 ± 33 | 41.3 ± 30 | 45.6 ± 31 | 70.4 ± 24
CC(C)COC(=O)Cc1ccccc1 [Isobutyl phenylacetate] | 54.3 ± 24 |  | 33.7 ± 29 |  | 15.7 ± 21 |  | 45.5 ± 30 | 49 ± 31 | 52 ± 29 |  |  | 
CCC(=O)OCC(C)C [Isobutyl propionate] | 47.8 ± 23 |  | 41 ± 28 |  | 31.5 ± 28 |  | 58.6 ± 23 | 48 ± 27 | 57.3 ± 30 |  |  | 
